# In PubChem BioAssay AID1259407 (Chemical Carcinogenesis Research Information System (CCRIS), 2018):
# Activity calls are given as the source filed them. No rule for the calls is given here.
# Test system: CCRIS mutagenicity, Ames/micronucleus/aberration tests
# Assay: CCRIS mutagenicity studies
# [1] = Test System: AMES SALMONELLA TYPHIMURIUM, Strain/Indicator: TA98, Metabolic Activation: NONE, Method: STANDARD PLATE
# [2] = Test System: AMES SALMONELLA TYPHIMURIUM, Strain/Indicator: TA100, Metabolic Activation: NONE, Method: STANDARD PLATE
# [3] = Test System: AMES SALMONELLA TYPHIMURIUM, Strain/Indicator: TA100, Metabolic Activation: RAT, LIVER, S-9, AROCLOR 1254, Method: STANDARD PLATE
structure (smiles),measurement,setting,value
CCCCCCCCC=O,mutagenic call,"End Point: IN VITRO CHROMOSOMAL ABERRATIONS, Test System: RAT HEPATOCYTES, Metabolic Activation: NONE",inactive; negative
same,mutagenic call,"End Point: IN VITRO MICRONUCLEUS, Test System: RAT HEPATOCYTES, Metabolic Activation: NONE",inactive; negative
same,mutagenic call,"Test System: AMES SALMONELLA TYPHIMURIUM, Strain/Indicator: TA98, Metabolic Activation: HAMSTER, LIVER, S-9, AROCLOR 1254, Method: STANDARD PLATE",inactive; negative
same,mutagenic call,[1],inactive; negative
same,mutagenic call,"Test System: AMES SALMONELLA TYPHIMURIUM, Strain/Indicator: TA98, Metabolic Activation: RAT, LIVER, S-9, AROCLOR 1254, Method: STANDARD PLATE",inactive; negative
same,mutagenic call,"Test System: AMES SALMONELLA TYPHIMURIUM, Strain/Indicator: TA98, Metabolic Activation: RAT, LIVER, S-9, AROCLOR, Method: STANDARD PLATE",inactive; negative
same,mutagenic call,"Test System: AMES SALMONELLA TYPHIMURIUM, Strain/Indicator: TA100, Metabolic Activation: HAMSTER, LIVER, S-9, AROCLOR 1254, Method: STANDARD PLATE",inactive; negative
same,mutagenic call,[2],inactive; negative
same,mutagenic call,[3],inactive; negative
same,mutagenic call,"Test System: AMES SALMONELLA TYPHIMURIUM, Strain/Indicator: TA100, Metabolic Activation: RAT, LIVER, S-9, AROCLOR, Method: STANDARD PLATE",inactive; negative
same,mutagenic call,"Test System: AMES SALMONELLA TYPHIMURIUM, Strain/Indicator: TA1535, Metabolic Activation: HAMSTER, LIVER, S-9, AROCLOR 1254, Method: STANDARD PLATE",inactive; negative
same,mutagenic call,"Test System: AMES SALMONELLA TYPHIMURIUM, Strain/Indicator: TA1535, Metabolic Activation: NONE, Method: STANDARD PLATE",inactive; negative
same,mutagenic call,"Test System: AMES SALMONELLA TYPHIMURIUM, Strain/Indicator: TA1535, Metabolic Activation: RAT, LIVER, S-9, AROCLOR 1254, Method: STANDARD PLATE",inactive; negative
same,mutagenic call,"Test System: AMES SALMONELLA TYPHIMURIUM, Strain/Indicator: TA1537, Metabolic Activation: HAMSTER, LIVER, S-9, AROCLOR 1254, Method: STANDARD PLATE",inactive; negative
same,mutagenic call,"Test System: AMES SALMONELLA TYPHIMURIUM, Strain/Indicator: TA1537, Metabolic Activation: NONE, Method: STANDARD PLATE",inactive; negative
same,mutagenic call,"Test System: AMES SALMONELLA TYPHIMURIUM, Strain/Indicator: TA1537, Metabolic Activation: RAT, LIVER, S-9, AROCLOR 1254, Method: STANDARD PLATE",inactive; negative
same,mutagenic call,"Test System: AMES SALMONELLA TYPHIMURIUM, Strain/Indicator: TA1538, Metabolic Activation: HAMSTER, LIVER, S-9, AROCLOR 1254, Method: STANDARD PLATE",inactive; negative
same,mutagenic call,"Test System: AMES SALMONELLA TYPHIMURIUM, Strain/Indicator: TA1538, Metabolic Activation: NONE, Method: STANDARD PLATE",inactive; negative
same,mutagenic call,"Test System: AMES SALMONELLA TYPHIMURIUM, Strain/Indicator: TA1538, Metabolic Activation: RAT, LIVER, S-9, AROCLOR 1254, Method: STANDARD PLATE",inactive; negative
same,mutagenic call,"Test System: AMES SALMONELLA TYPHIMURIUM, Strain/Indicator: UTH8413, Metabolic Activation: NONE, Method: STANDARD PLATE",inactive; negative
same,mutagenic call,"Test System: AMES SALMONELLA TYPHIMURIUM, Strain/Indicator: UTH8413, Metabolic Activation: RAT, LIVER, S-9, AROCLOR, Method: STANDARD PLATE",inactive; negative
same,mutagenic call,"Test System: AMES SALMONELLA TYPHIMURIUM, Strain/Indicator: UTH8414, Metabolic Activation: NONE, Method: STANDARD PLATE",inactive; negative
same,mutagenic call,"Test System: AMES SALMONELLA TYPHIMURIUM, Strain/Indicator: UTH8414, Metabolic Activation: RAT, LIVER, S-9, AROCLOR, Method: STANDARD PLATE",inactive; negative
same,mutagenic call,"Test System: CHINESE HAMSTER V-79, Strain/Indicator: V-79/6-THIOGUANINE (HGPRT), Metabolic Activation: NONE, Method: REPLATING",active; positive
same,mutagenic call,"Test System: CHINESE HAMSTER V-79, Strain/Indicator: V-79/OUABAIN (NA/K), Metabolic Activation: NONE, Method: REPLATING",active; positive
same,mutagenic call,"Test System: MOUSE LYMPHOMA, Strain/Indicator: L5178Y (TK+/TK-), Metabolic Activation: NONE, Method: SUSPENSION/PLATE",inactive; negative. reevaluation of results: equivocal
same,mutagenic call,"Test System: MOUSE LYMPHOMA, Strain/Indicator: L5178Y (TK+/TK-), Metabolic Activation: RAT, LIVER, S-9, AROCLOR 1254, Method: SUSPENSION/PLATE",inactive; negative. reevaluation of results: equivocal
same,mutagenic call,"Test System: UDS HUMAN HEPATOCYTES, Strain/Indicator: THY INCORP, Metabolic Activation: NONE, Method: AUTORADIOGRAPHY",inactive; negative
same,mutagenic call,"Test System: UDS RAT HEPATOCYTES, Strain/Indicator: THY INCORP, Metabolic Activation: NONE, Method: AUTORADIOGRAPHY",inactive; negative
COc1ccc2oc([N+](=O)[O-])cc2c1N(CCCl)CCCl,mutagenic call,"Test System: AMES SALMONELLA TYPHIMURIUM, Strain/Indicator: TA100(NR), Metabolic Activation: NONE, Method: STANDARD PLATE",active; positive
same,mutagenic call,"Test System: AMES SALMONELLA TYPHIMURIUM, Strain/Indicator: TA100(NR), Metabolic Activation: RAT, LIVER, S-9, AROCLOR 1254, Method: STANDARD PLATE",active; positive
same,mutagenic call,[2],active; positive
same,mutagenic call,[3],active; positive
CCCCCCCCS(=O)C(C)Cc1ccc2c(c1)OCO2 (centres undefined),mutagenic call,"End Point: IN VITRO CHROMOSOMAL ABERRATIONS, Test System: CHINESE HAMSTER OVARY CELLS, Metabolic Activation: NONE",inactive; negative
same,mutagenic call,"End Point: IN VITRO CHROMOSOMAL ABERRATIONS, Test System: CHINESE HAMSTER OVARY CELLS, Metabolic Activation: RAT, LIVER, S-9, AROCLOR 1254",inactive; negative
O=[N+]([O-])c1ccc2ccc3cc4ccccc4c4ccc1c2c34,mutagenic call,"Test System: AMES SALMONELLA TYPHIMURIUM, Strain/Indicator: TA98(1,8-DNP6), Metabolic Activation: NONE",active; positive
same,mutagenic call,"Test System: AMES SALMONELLA TYPHIMURIUM, Strain/Indicator: TA98(1,8-DNP6), Metabolic Activation: NONE, Method: STANDARD PLATE",active; positive
same,mutagenic call,"Test System: AMES SALMONELLA TYPHIMURIUM, Strain/Indicator: TA98(1,8-DNP6), Metabolic Activation: RAT, LIVER, S-9, AROCLOR 1254",active; positive
same,mutagenic call,"Test System: AMES SALMONELLA TYPHIMURIUM, Strain/Indicator: TA98(NR), Metabolic Activation: NONE",active; positive
same,mutagenic call,"Test System: AMES SALMONELLA TYPHIMURIUM, Strain/Indicator: TA98(NR), Metabolic Activation: NONE, Method: PREINCUBATION",active; positive
same,mutagenic call,"Test System: AMES SALMONELLA TYPHIMURIUM, Strain/Indicator: TA98(NR), Metabolic Activation: NONE, Method: STANDARD PLATE",inactive; negative
same,mutagenic call,"Test System: AMES SALMONELLA TYPHIMURIUM, Strain/Indicator: TA98(NR), Metabolic Activation: RAT, LIVER, S-9, AROCLOR 1254",active; positive
same,mutagenic call,"Test System: AMES SALMONELLA TYPHIMURIUM, Strain/Indicator: TA98, Metabolic Activation: NONE",active; positive
same,mutagenic call,"Test System: AMES SALMONELLA TYPHIMURIUM, Strain/Indicator: TA98, Metabolic Activation: NONE', Method: STANDARD PLATE",active; positive
same,mutagenic call,"Test System: AMES SALMONELLA TYPHIMURIUM, Strain/Indicator: TA98, Metabolic Activation: NONE, Method: PREINCUBATION",active; positive
same,mutagenic call,[1],active; positive
same,mutagenic call,"Test System: AMES SALMONELLA TYPHIMURIUM, Strain/Indicator: TA98, Metabolic Activation: NONE, Method: STANDARD PLATE (ANAEROBIC)",active; positive
same,mutagenic call,"Test System: AMES SALMONELLA TYPHIMURIUM, Strain/Indicator: TA98, Metabolic Activation: RAT, LIVER, HEPATOCYTES, AROCLOR 1254",active; positive
same,mutagenic call,"Test System: AMES SALMONELLA TYPHIMURIUM, Strain/Indicator: TA98, Metabolic Activation: RAT, LIVER, S-9, AROCLOR 1254",active; positive
same,mutagenic call,[2],active; positive
same,mutagenic call,"Test System: CHINESE HAMSTER OVARY, Strain/Indicator: CHO-K1-BH4 (HGPRT), Metabolic Activation: NONE",inactive; negative
same,mutagenic call,"Test System: CHINESE HAMSTER OVARY, Strain/Indicator: CHO-K1-BH4 (HGPRT), Metabolic Activation: RAT, LIVER, S-9, 3-METHYLCHOLANTHRENE",active; positive
same,mutagenic call,"Test System: CHO/HGPRT, Strain/Indicator: CHO-K1-BH4, Metabolic Activation: NONE",inactive; negative
same,mutagenic call,"Test System: CHO/HGPRT, Strain/Indicator: CHO-K1-BH4, Metabolic Activation: RAT, LIVER, HEPATOCYTES",inactive; negative
same,mutagenic call,"Test System: CHO/HGPRT, Strain/Indicator: CHO-K1-BH4, Metabolic Activation: RAT, LIVER, HEPATOCYTES, 3-METHYLCHOLANTHRENE",inactive; negative
same,mutagenic call,"Test System: CHO/HGPRT, Strain/Indicator: CHO-K1-BH4, Metabolic Activation: RAT, LIVER, HEPATOCYTES, AROCLOR 1254",inactive; negative
same,mutagenic call,"Test System: CHO/HGPRT, Strain/Indicator: CHO-K1-BH4, Metabolic Activation: RAT, LIVER, S-9",inactive; negative
same,mutagenic call,"Test System: CHO/HGPRT, Strain/Indicator: CHO-K1-BH4, Metabolic Activation: RAT, LIVER, S-9, 3-METHYLCHOLANTHRENE",active; positive
same,mutagenic call,"Test System: CHO/HGPRT, Strain/Indicator: CHO-K1-BH4, Metabolic Activation: RAT, LIVER, S-9, AROCLOR 1254",active; positive
